The results in this text go back to patent publication US20100197914A1, “Purine Derivatives as Adenosine Al Receptor Ligands” (priority 2007, published 2010).

The assay concerns the target T1, adenosine A1 receptor (Homo sapiens, UniProt P30542).
T1 sequence (P30542 1-326): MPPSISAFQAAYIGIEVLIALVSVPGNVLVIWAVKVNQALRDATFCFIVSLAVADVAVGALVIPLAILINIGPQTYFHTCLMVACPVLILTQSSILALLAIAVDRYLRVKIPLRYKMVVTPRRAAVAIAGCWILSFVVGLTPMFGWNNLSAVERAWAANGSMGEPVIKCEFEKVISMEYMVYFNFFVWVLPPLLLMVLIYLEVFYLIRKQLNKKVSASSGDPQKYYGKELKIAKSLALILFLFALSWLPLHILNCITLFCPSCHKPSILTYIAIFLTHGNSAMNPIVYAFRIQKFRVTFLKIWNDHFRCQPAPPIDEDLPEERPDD
Briefly: In vitro functional activity based on the stimulation of [35S]-GTPγS binding (SPA, agonist format). The note with it: mean of >2 measurements; A1 membranes, [35S]-GTPγS SPA assay; read-out: Mean pEC50 (converted). Format: biochemical. The text has this: In Vitro Functional Activity at the Human a Receptor Based on the Stimulation of [^35S]-GTPγS Binding
In brief the assay is based on the conventional GTPγS binding assay described by ([Lorenzen A, Guerra L, Vogt H, et al, (1996)] Interaction of full and partial agonists of the A1 adenosine receptor with receptor/G protein complexes in rat brain membranes. Mol Pharmacol. 49(5):915-26) The assay is run as a SPA assay where the A1 membranes are captured by wheatgerm agglutinin (WGA) SPA beads, through a specific interaction between WGA and carbohydrate residues of glycoprotein's on the surfaces for the membranes. Upon receptor stimulation, [^35S]-GTPγS binds specifically to the alpha subunit of the G-protein thus bringing the [^35S]-GTPγS into close proximity with the SPA beads. Emitted β particles from the [^35S]-GTPγS excite the scintillant in the beads and produce light. […] The assays were performed in a final volume of 250 μL per well in a white non-binding surface 96-well Optiplates and could be run in either an agonist format, or an antagonist format (pre-incubation with an EC50 concentration of the appropriate receptor agonist).
`CCC(=O)N[C@H]1C[C@@H](n2cnc3c(NC4CCCC4)ncnc32)[C@H](O)[C@@H]1O` [Example 1, N-[(1S,2R,3S,4R)-4-(6-Cyclopentylamino-purin-9-yl)-2,3-dihydroxy-cyclopentyl]-propionamide]: the EC50 was 47.9 nM.
For `O=C(CO)N[C@H]1C[C@@H](n2cnc3c(NC4CCCC4)ncnc32)[C@H](O)[C@@H]1O` [Example 3, N-[(1S,2R,3S,4R)-4-(6-Cyclopentylamino-purin-9-yl)-2,3-dihydroxy-cyclopentyl]-2-hydroxy-acetamide], the EC50 was 97.9 nM.
Then `CCC(=O)N[C@H]1C[C@@H](n2cnc3c(NC4CCCC4)nc(Cl)nc32)[C@H](O)[C@@H]1O` [Example 2, N-[(1S,2R,3S,4R)-4-(2-Chloro-6-cyclopentylamino-purin-9-yl)-2,3-dihydroxy-cyclopentyl]-propionamide], with 67.7 nM; and `O=C(CO)N[C@H]1C[C@@H](n2cnc3c(NC4CCCC4)nc(Cl)nc32)[C@H](O)[C@@H]1O` [Example 4, N-[(1S,2R,3S,4R)-4-(2-Chloro-6-cyclopentylamino-purin-9-yl)-2,3-dihydroxy-cyclopentyl]-2-hydroxy-acetamide], with 40.1 nM.
